According to ChEMBL document CHEMBL1201862, “PubChem BioAssay data set” (2004):
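These data come from cells grown in 96-well plates and exposed to compound for 48 hours at five concentrations. GI50: concentration for 50% inhibition of growth.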 Active and inactive are the calls of the source. Rule as the data show it: active = GI50 up to about 1.1 µM and inactive = higher.

Experiments:
Experiment in all cases: inhibition of tumour cell growth, NCI panel, 48 h
[1] = system: OVCAR-4
[2] = system: SF-539
[3] = system: MDA-N
[4] = system: MCF7
[5] = system: RPMI-8226
[6] = system: HL-60
[7] = system: EKVX
[8] = system: HCT-116
[9] = system: HOP-92
[10] = system: SR
[11] = system: IGROV-1
[12] = system: A549
[13] = system: DU-145
[14] = system: MDA-MB-231
[15] = system: MOLT-4
[16] = system: OVCAR-3
[17] = system: SF-268
[18] = system: KM12
[19] = system: T47D
[20] = system: UACC-62
[21] = system: SK-MEL-5
[22] = system: NCI/ADR-RES
[23] = system: HOP-62
[24] = system: HCC 2998
[25] = system: CCRF-CEM
[26] = system: SNB-75
[27] = system: ACHN
[28] = system: U-251
[29] = system: K562
[30] = system: BT-549
[31] = system: SK-OV-3
[32] = system: Malme-3M
[33] = system: A498
[34] = system: HCT-15
[35] = system: NCI-H226
[36] = system: CAKI-1
[37] = system: OVCAR-8
[38] = system: UO-31
[39] = system: NCI-H460
[40] = system: UACC-257
[41] = system: PC-3
[42] = system: RXF 393
[43] = system: NCI-H23
[44] = system: SW-620
[45] = system: COLO 205
[46] = system: SF-295
[47] = system: HT-29
[48] = system: NCI-H522
[49] = system: SK-MEL-28
[50] = system: Hs-578T
[51] = system: TK-10
[52] = system: LOX IMVI
[53] = system: SN12C
[54] = system: OVCAR-5
[55] = system: MDA-MB-435
[56] = system: 786-0
[57] = system: SNB-19
[58] = system: SK-MEL-2
[59] = system: M14

With `O=c1c2cc(-c3ccccc3)sc2nc2n1N=C(c1ccccc1)CS2` the GI50 [1] was 15.8 µM (inactive), the GI50 [2] was 27.9 µM (inactive) and the GI50 [3] was 34.9 µM (inactive). For the same molecule, the GI50 [4] was 14.6 µM (inactive), the GI50 [5] was > 100 µM (inactive) and the GI50 [6] was > 100 µM (inactive). The GI50 [7] was 24.9 µM (inactive), the GI50 [8] was 34.8 µM (inactive) and the GI50 [9] was 12.1 µM (inactive). The GI50 [10] was > 100 µM (inactive), the GI50 [11] was > 10 µM (inactive) and the GI50 [12] was 21.4 µM (inactive). For the same molecule, the GI50 [13] was 94.4 µM (inactive), the GI50 [14] was 39.8 µM (inactive) and the GI50 [15] was > 100 µM (inactive). The GI50 [16] was 18.2 µM (inactive), the GI50 [17] was 24.3 µM (inactive) and the GI50 [18] was 31 µM (inactive). The GI50 [19] was 9.55 µM (inactive), the GI50 [20] was 12.4 µM (inactive) and the GI50 [21] was 20.6 µM (inactive). For the same molecule, the GI50 [22] was 13.4 µM (inactive), the GI50 [23] was 5.02 µM (inactive) and the GI50 [24] was 36.5 µM (inactive). For the same molecule, the GI50 [25] was 57.7 µM (inactive), the GI50 [26] was 19.1 µM (inactive) and the GI50 [27] was 11.4 µM (inactive). For the same molecule, the GI50 [28] was 19.7 µM (inactive), the GI50 [29] was > 100 µM (inactive) and the GI50 [30] was 18.4 µM (inactive). For the same molecule, the GI50 [31] was 10.6 µM (inactive), the GI50 [32] was 33.3 µM (inactive) and the GI50 [33] was 21.4 µM (inactive). For the same molecule, the GI50 [34] was 84.3 µM, the GI50 [35] was 30.6 µM (inactive) and the GI50 [36] was 13.5 µM (inactive). For the same molecule, the GI50 [37] was 32.1 µM (inactive), the GI50 [38] was 62.2 µM (inactive) and the GI50 [39] was 25.1 µM (inactive). For the same molecule, the GI50 [40] was 24.1 µM (inactive), the GI50 [41] was 28.9 µM (inactive) and the GI50 [42] was > 10 µM (inactive). The GI50 [43] was 76 µM (inactive), the GI50 [44] was 69.5 µM (inactive) and the GI50 [45] was 79.3 µM (inactive). The GI50 [46] was 15.5 µM (inactive), the GI50 [47] was > 10 µM (inactive) and the GI50 [48] was 22.4 µM (inactive). The GI50 [49] was 23.6 µM (inactive), the GI50 [50] was 8.63 µM (inactive) and the GI50 [51] was 40.3 µM (inactive). For the same molecule, the GI50 [52] was 27.3 µM (inactive), the GI50 [53] was 27 µM (inactive) and the GI50 [54] was > 100 µM (inactive). The GI50 [55] was 37.5 µM (inactive) and the GI50 [56] was 13.8 µM (inactive).
In the case of `O=C1Nc2ccccc2/C1=N/NC(=S)N1CCCC1`, the GI50 [1] was 1.01 µM (active), the GI50 [2] was 1.08 µM (active) and the GI50 [3] was 3.4 µM (inactive). The GI50 [4] was 2.07 µM (inactive), the GI50 [5] was 0.743 µM (active) and the GI50 [6] was 0.583 µM (active). The GI50 [7] was 2.37 µM (inactive), the GI50 [8] was 0.425 µM (active) and the GI50 [9] was 8.38 µM (inactive). The GI50 [10] was 0.291 µM (active), the GI50 [11] was 1.87 µM (inactive) and the GI50 [12] was 0.736 µM (active). For the same molecule, the GI50 [13] was 17.1 µM (inactive), the GI50 [14] was 6.58 µM (inactive) and the GI50 [15] was 0.193 µM (active). The GI50 [16] was 0.53 µM (active), the GI50 [17] was 9.93 µM (inactive) and the GI50 [18] was 2.4 µM (inactive). The GI50 [19] was 6.25 µM (inactive), the GI50 [20] was 1.32 µM (inactive) and the GI50 [21] was 0.585 µM (active). The GI50 [22] was 0.361 µM (active), the GI50 [23] was 1.19 µM (inactive) and the GI50 [57] was 1.15 µM (inactive). For the same molecule, the GI50 [58] was 6.27 µM (inactive), the GI50 [24] was 0.586 µM (active) and the GI50 [25] was 0.369 µM (active). The GI50 [26] was 3.45 µM (inactive), the GI50 [27] was 0.64 µM (active) and the GI50 [28] was 0.867 µM (active). For the same molecule, the GI50 [29] was 0.586 µM (active), the GI50 [30] was 2.54 µM (inactive) and the GI50 [31] was 5.12 µM (inactive). The GI50 [32] was 0.889 µM (active), the GI50 [33] was 2.95 µM (inactive) and the GI50 [34] was 0.281 µM. The GI50 [35] was 0.247 µM (active), the GI50 [36] was 2.15 µM (inactive) and the GI50 [37] was 1.02 µM (active). The GI50 [38] was 0.632 µM (active), the GI50 [39] was 0.499 µM (active) and the GI50 [40] was 6.97 µM (inactive). The GI50 [41] was 0.507 µM (active), the GI50 [42] was 0.358 µM (active) and the GI50 [43] was 3.01 µM (inactive). For the same molecule, the GI50 [44] was 0.766 µM (active), the GI50 [45] was 1.44 µM (inactive) and the GI50 [46] was 0.662 µM (active). The GI50 [47] was 1.19 µM (inactive), the GI50 [48] was 2.12 µM (inactive) and the GI50 [49] was > 100 µM (inactive). The GI50 [50] was 2.13 µM (inactive), the GI50 [51] was 8.26 µM (inactive) and the GI50 [52] was 0.673 µM (active). For the same molecule, the GI50 [59] was 1.56 µM (inactive), the GI50 [53] was 1.91 µM (inactive) and the GI50 [54] was 12.8 µM (inactive). For the same molecule, the GI50 [55] was 3.64 µM (inactive) and the GI50 [56] was 0.647 µM (active).
